In ChEMBL document CHEMBL5370694, “Novel Pyrrole Derivatives as Apolipoprotein L-1 Inhibitors for Treating Kidney Diseases and Sepsis” (ACS Med Chem Lett, 2023):

What was measured:
Apolipoprotein L1 = biological target: T1, Apolipoprotein L1 (Homo sapiens, UniProt O14791); test: Inhibition of wild type APOL1 containing G0 in human U2OS cells incubated for 80 mins by thallium flux based FLIPR assay; type: cell-based
T1 sequence (O14791 whole entry): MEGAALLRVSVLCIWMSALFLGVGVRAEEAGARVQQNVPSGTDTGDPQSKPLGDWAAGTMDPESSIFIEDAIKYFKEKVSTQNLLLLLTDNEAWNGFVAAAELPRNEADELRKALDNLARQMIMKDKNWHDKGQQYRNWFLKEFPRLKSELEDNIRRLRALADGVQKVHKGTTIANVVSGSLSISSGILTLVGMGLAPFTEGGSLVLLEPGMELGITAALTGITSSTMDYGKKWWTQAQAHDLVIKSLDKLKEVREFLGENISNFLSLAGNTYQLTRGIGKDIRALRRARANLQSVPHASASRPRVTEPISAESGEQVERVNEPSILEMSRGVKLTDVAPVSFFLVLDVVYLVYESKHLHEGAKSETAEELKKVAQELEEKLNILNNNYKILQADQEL

[1] = Inhibition of APOL1 isoform G2 variant in human U2OS cells incubated for 80 mins by thallium flux based FLIPR assay; type: cell-based

SMILES | IC50 (Apolipoprotein L1) | IC50 [1]
O=C(CCc1cc(-c2c(F)cc(F)cc2Cl)[nH]c1-c1ccc(Cl)cc1)N[C@@H]1C(=O)NC[C@H]1O | 0.501 nM | 0.794 nM
O=C(CCc1cc(C2(C(F)(F)F)CC2)[nH]c1-c1ccc(C(F)(F)F)cc1)N[C@@H]1C(=O)NC[C@H]1O | 2.51 nM | 5.01 nM
O=C(CCc1c(-c2ccc(Cl)cc2)[nH]c(C2(C(F)(F)F)CC2)c1F)N[C@@H]1C(=O)NC[C@H]1O | 2 nM | 5.01 nM
O=C(CCc1cc(-c2c(F)cc(F)cc2F)[nH]c1-c1ccc(Cl)cc1)N[C@@H]1C(=O)NC[C@H]1O | 3.16 nM | 3.98 nM
CC(C)(C)c1cc(CCC(=O)N[C@@H]2C(=O)NC[C@H]2O)c(-c2ccc(C(F)(F)F)cc2)[nH]1 | 1.58 nM | 5.01 nM
O=C(CCc1cc(C2(C(F)(F)F)CC2)[nH]c1-c1ccc(Cl)cc1)N[C@@H]1C(=O)NC[C@H]1O | 2.51 nM | 3.98 nM
